This experiment has as its target T1, JAK3 (recombinant human kinase domain; h-jak3(810-1124)) (Homo sapiens, UniProt P52333).
T1 construct: h-jak3(810- 1124)-sf9-c; made in house; host or cells: Sf9 insect cells
The experiment in a line: Determination of IC50 of Janus Kinase (JAK) inhibition: JAK3, radioactive end-point assay with 33P-ATP. It is filed as biochemical. The note with it: JAK3 kinase domain; ATP 1.5 uM, peptide 50 uM, 20 minutes, room temperature, 10% DMSO; read-out: Ic50 h-jak3(810-1124)-sf9-c:no additive.

T1 sequence (P52333 810-1124): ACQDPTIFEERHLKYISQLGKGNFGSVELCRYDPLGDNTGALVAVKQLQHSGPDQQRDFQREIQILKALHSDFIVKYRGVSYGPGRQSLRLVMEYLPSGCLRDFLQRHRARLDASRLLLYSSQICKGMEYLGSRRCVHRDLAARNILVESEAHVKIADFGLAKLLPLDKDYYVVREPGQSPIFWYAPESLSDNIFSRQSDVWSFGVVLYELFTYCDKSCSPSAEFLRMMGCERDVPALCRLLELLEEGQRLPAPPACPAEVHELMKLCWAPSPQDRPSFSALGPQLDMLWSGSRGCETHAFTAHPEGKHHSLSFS

Regarding `CCNC(=O)c1c[nH]c2ncc(Oc3cccc(C#N)c3)nc12` [Example I-245, 2-(3-Cyano-phenoxy)-5H-pyrrolo[2,3-b]pyrazine-7-carboxylic acid ethylamide], the IC50 came out at 3310 nM.
Consider `CCNC(=O)c1c[nH]c2ncc(Oc3cccc(OC(F)(F)F)c3)nc12` [Example I-246, 2-(3-Trifluoromethoxy-phenoxy)-5H-pyrrolo[2,3-b]pyrazine-7-carboxylic acid ethylamide], for which the concentration for half-maximal inhibition (IC50) stood at 3460 nM.
The same measure for `CCNC(=O)c1c[nH]c2ncc(Oc3cccc(C(C)(C)C)c3)nc12` [Example I-247, 2-(3-tert-Butyl-phenoxy)-5H-pyrrolo[2,3-b]pyrazine-7-carboxylic acid ethylamide]: 6460 nM; for `CCNC(=O)c1c[nH]c2ncc(Oc3cccc(C)c3)nc12` [Example I-248, 2-m-Tolyloxy-5H-pyrrolo[2,3-b]pyrazine-7-carboxylic acid ethylamide]: 1030 nM.
In the case of `CCNC(=O)c1c[nH]c2ncc(Oc3cccc(CC)c3)nc12` [Example I-249, 2-(3-Ethyl-phenoxy)-5H-pyrrolo[2,3-b]pyrazine-7-carboxylic acid ethylamide] it was 1590 nM; in that of `CCNC(=O)c1c[nH]c2ncc(Oc3cccc(C(C)C)c3)nc12` [Example I-250, 2-(3-Isopropyl-phenoxy)-5H-pyrrolo[2,3-b]pyrazine-7-carboxylic acid ethylamide], 4590 nM.
As to `CCNC(=O)c1c[nH]c2ncc(Oc3cccc(C(F)(F)F)c3)nc12` [Example I-251, 2-(3-Trifluoromethyl-phenoxy)-5H-pyrrolo[2,3-b]pyrazine-7-carboxylic acid ethylamide], the 50% inhibitory concentration (IC50) stood at 4030 nM.
The same measure for `CC(C)NC(=O)c1c[nH]c2ncc(Oc3ccccc3OC(F)(F)F)nc12` [Example I-253, 2-(2-Trifluoromethoxy-phenoxy)-5H-pyrrolo[2,3-b]pyrazine-7-carboxylic acid isopropylamide]: 2170 nM; for `CC(C)NC(=O)c1c[nH]c2ncc(Oc3cccc4c3OC(C)(C)C4)nc12` [Example I-254, 2-(2,2-Dimethyl-2,3-dihydro-benzofuran-7-yloxy)-5H-pyrrolo[2,3-b]pyrazine-7-carboxylic acid isopropylamide]: 2990 nM.
For the molecule `CC(C)NC(=O)c1c[nH]c2ncc(Oc3ccccc3Cl)nc12` [Example I-255, 2-(2-Chloro-phenoxy)-5H-pyrrolo[2,3-b]pyrazine-7-carboxylic acid isopropylamide], the half-maximal inhibitory concentration (IC50) was 382 nM.
Regarding `COc1ccccc1Oc1cnc2[nH]cc(C(=O)NC(C)C)c2n1` [Example I-256, 2-(2-Methoxy-phenoxy)-5H-pyrrolo[2,3-b]pyrazine-7-carboxylic acid isopropylamide], the IC50 stood at 931 nM.
In the case of `CCNC(=O)c1c[nH]c2ncc(Oc3ccccc3C)nc12` [Example I-257, 2-o-Tolyloxy-5H-pyrrolo[2,3-b]pyrazine-7-carboxylic acid ethylamide] it was 2740 nM.
The same measure for `CCNC(=O)c1c[nH]c2ncc(Oc3cccc4c3CCCC4)nc12` [Example I-259]: 6710 nM; for `CCNC(=O)c1c[nH]c2ncc(Oc3ccc4c(c3)CCCC4)nc12` [Example I-260, 2-(5,6,7,8-Tetrahydro-naphthalen-2-yloxy)-5H-pyrrolo[2,3-b]pyrazine-7-carboxylic acid ethylamide]: 1530 nM.
The same measure for `CCNC(=O)c1c[nH]c2ncc(Oc3cccc4ccccc34)nc12` [Example I-261, 2-(Naphthalen-1-yloxy)-5H-pyrrolo[2,3-b]pyrazine-7-carboxylic acid ethylamide]: 2990 nM.
Turning to `CCNC(=O)c1c[nH]c2ncc(Oc3ccc4ccccc4c3)nc12` [Example I-262, 2-(Naphthalen-2-yloxy)-5H-pyrrolo[2,3-b]pyrazine-7-carboxylic acid ethylamide], the 50% inhibitory concentration (IC50) was 1870 nM.
In the case of `CCNC(=O)c1c[nH]c2ncc(Oc3cc(OC)cc(OC)c3)nc12` [Example I-263, 2-(3,5-Dimethoxy-phenoxy)-5H-pyrrolo[2,3-b]pyrazine-7-carboxylic acid ethylamide] it was 2350 nM.

These data come from US20140155376A1, “PYRROLOPYRAZINE KINASE INHIBITORS” (Hoffmann-La Roche Inc., priority 2010, published 2014).
